# Measurements published in paper PMC10033409, “Autoregulation of GPCR signalling through the third intracellular loop” (Nature, 2023).
# Values joined by “and” are separate entries in the source; they are usually repeats but may differ in a detail not shown here. Equal values may be shown once. Where a name gives a salt, the structure may show the parent alone. Read-outs that look alike come from different tables or passages of the source.
# Assays:
# [1] = target: T1, PTH1R (Homo sapiens, UniProt Q03431); experiment: cAMP accumulation, PTH1R; type: cell-based; settings: PTH1R Wild-Type
# T1 construct: expressed in transfected cells; host or cells: HEK 293T
# T1 sequence (Q03431 27-593): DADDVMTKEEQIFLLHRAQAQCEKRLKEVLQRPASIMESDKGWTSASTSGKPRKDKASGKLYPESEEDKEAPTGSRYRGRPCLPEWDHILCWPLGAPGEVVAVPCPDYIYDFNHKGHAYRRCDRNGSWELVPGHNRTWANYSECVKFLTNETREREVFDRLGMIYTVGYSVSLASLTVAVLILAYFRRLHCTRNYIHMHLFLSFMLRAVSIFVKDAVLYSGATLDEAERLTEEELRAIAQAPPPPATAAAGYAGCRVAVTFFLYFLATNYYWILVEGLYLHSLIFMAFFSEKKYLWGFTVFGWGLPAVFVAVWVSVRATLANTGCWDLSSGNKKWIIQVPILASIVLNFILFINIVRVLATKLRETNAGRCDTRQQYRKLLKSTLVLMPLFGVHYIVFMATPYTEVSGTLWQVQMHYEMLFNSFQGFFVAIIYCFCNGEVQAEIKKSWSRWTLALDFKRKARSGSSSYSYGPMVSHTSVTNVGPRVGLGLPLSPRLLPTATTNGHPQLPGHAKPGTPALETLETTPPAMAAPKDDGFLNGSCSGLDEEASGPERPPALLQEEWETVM
# Method: (§1) One millilitre of medium was removed from each well containing transfected cells. The remaining volume was used to gently shear and resuspend the cells by pipetting. The cell mixture was centrifuged (3 min, 300g) and media was removed using a vacuum manifold. […] The cells were washed once by repeating this procedure.
# (§2) For all other second messenger assays, expression level and cell density of each condition was estimated through fluorescence. Fluorescence spectra for mCerulean (Horiba Fluoromax 4, excitation 430 nm, emission scan 450–600 nm, bandpass 4 nm) and mCitrine (Horiba Fluoromax 4, excitation 490 nm, emission scan 500–600 nm, bandpass 4 nm) were acquired for each condition. Cells were resuspended at 350,000 ± 30,000 fluorescence counts at a wavelength representing optical density of the sample (excitation 430 nm/emission 450 nm), corresponding with 2 × 10^6 ± 5 × 10^5 cells per m^l. This was confirmed by counting the cells on a haemocytometer (Countess II).
# Resuspended cells were added 1:1 with a 2× concentration of ligand (10 µl final) into an opaque 384-well flat bottom plate (Greiner Bio-One). […] For dose–response curves, a saturating concentration of forskolin (10 µM) was included as a control to measure cAMP stimulation independent of the transfected receptor. […] For all other experiments, plates were incubated at room temperature for 10 min. […] Reactions were quenched and processed for the cAMP-Glo Assay (Promega) following the manufacturer’s instructions. Luminescence was measured on a Tecan Spark plate reader (500 ms integration, one measurement per well).
# [2] = tested on: PTH1R; experiment: InsP1 accumulation, PTH1R; type: cell-based, human; settings: PTH1R B2AR ICL3
# Method: as §1, §2
# (§3) Resuspended cells were added 1:1 with a 2× concentration of ligand (70 µl final) into an opaque 96-well U-bottom plate (Greiner Bio-One). […] Plates were incubated at 37 °C for 2 h to stimulate InsP1 production. Reactions were quenched and processed for the InsP1 HTRF Assay (CisBio), following a protocol modified to achieve a higher signal to noise ratio. Fifteen microlitres of D2-conjugated InsP1 resuspended in lysis buffer (Cisbio) and 15 µl of terbium cryptate conjugated anti-InsP1 antibody resuspended in lysis buffer (Cisbio) were added to the stimulated cell mixture. Cell lysate was equilibrated for 1 h at ambient temperature with shaking (500 rpm). Reactions were transferred (4 × 20 µl) to a 384-well plate for technical replicates. […] FRET ratio for each reading was calculated as the ratio of acceptor emission to donor emission. InsP1 signal for a drug and transfection combination was calculated as the average FRET ratio of a given transfection condition without drug treatment subtracted from the average FRET ratio of a of a given transfection condition with drug treatment.
# [3] = target: T1, PTH1R; experiment: InsP1 accumulation, PTH1R; type: cell-based; settings: PTH1R Wild-Type
# Method: as §1, §2, §3
# [4] = tested on: β2AR; settings: for competition binding curve vs isoproterenol (Extended Data Figure 3M), Fit: fitted curve; for competition binding curve vs isoproterenol (Extended Data Figure 3M): replicates 1-3 and Average
# Method: Reactions were equilibrated, washed, and measured following the same procedure listed above for the radioligand antagonist-binding assay. […] Weighted averages of these IC50 values were used for comparison purposes and inhibition constant (Ki) calculations. […] Binding assays were performed in technical duplicates. Three biological replicates were collected with different membrane preparations for each replicate.
# [5] = [Isoproterenol] log(M) -8.30103
# [6] = [Isoproterenol] log(M) -9.30103
# [7] = [Isoproterenol] log(M) -6.30103
# [8] = [Isoproterenol] log(M) -7.30103
# [9] = Sensor + Gs-peptide, Isoproterenol 1.00E-03 M
# [10] = Sensor + Gs-peptide, Isoproterenol 1.00E-04 M
# [11] = Sensor + Gs-peptide, Isoproterenol 1.00E-05 M
# [12] = Sensor + Gs-peptide, Isoproterenol 1.00E-06 M
# [13] = Sensor + Gs-peptide, Isoproterenol 1.00E-07 M
# [14] = Sensor + Gs-peptide, Isoproterenol 1.00E-08 M
# [15] = Sensor + Gs-peptide, Isoproterenol 1.00E-09 M
# [16] = Sensor + Gs-peptide, Isoproterenol 1.00E-10 M
# [17] = Sensor, Isoproterenol 1.00E-03 M
# [18] = Sensor, Isoproterenol 1.00E-05 M
# [19] = Sensor, Isoproterenol 1.00E-06 M
smiles,measurement,setting,value
"CC(C)NCC(O)c1ccc(O)c(O)c1 (stereo not drawn) [Isoproterenol, isoproterenol (+)-bitartrate salt]","cAMP (Isoproterenol/Forskolin Maximum), Average",[1]; [Isoproterenol] log(M) -5,0.55
same,"cAMP (Isoproterenol/Forskolin Maximum), Average",[1]; [Isoproterenol] log(M) -6,0.57
same,"cAMP (Isoproterenol/Forskolin Maximum), Average",[1]; [Isoproterenol] log(M) -7,0.59
same,"cAMP (Isoproterenol/Forskolin Maximum), Average",[1]; [Isoproterenol] log(M) -8,0.43
same,"cAMP (Isoproterenol/Forskolin Maximum), Average",[1]; [5],0.44
same,"cAMP (Isoproterenol/Forskolin Maximum), Average",[1]; [Isoproterenol] log(M) -9,0.10
same,"cAMP (Isoproterenol/Forskolin Maximum), Average",[1]; [6],0.00476
same,"cAMP (Isoproterenol/Forskolin Maximum), Average",[1]; [Isoproterenol] log(M) -10,-0.0216
same,"cAMP (Isoproterenol/Forskolin Maximum), Average",[1]; [Isoproterenol] log(M) -11,-0.00704
same,"cAMP (Isoproterenol/Forskolin Maximum), Average",[1]; [Isoproterenol] log(M) -12,-0.08
same,"IP1 (AU), Average",[2]; [Isoproterenol] log(M) -5,0.32 AU
same,"IP1 (AU), Average",[2]; [Isoproterenol] log(M) -6,0.35 AU
same,"IP1 (AU), Average",[2]; [7],0.29 AU
same,"IP1 (AU), Average",[2]; [Isoproterenol] log(M) -7,0.28 AU
same,"IP1 (AU), Average",[2]; [8],0.15 AU
same,"IP1 (AU), Average",[2]; [Isoproterenol] log(M) -8,-0.00248 AU
same,"IP1 (AU), Average",[2]; [5],-0.00156 AU
same,"IP1 (AU), Average",[2]; [6],0.05 AU
same,"IP1 (AU), Average",[2]; [Isoproterenol] log(M) -10,-0.0155 AU
same,"IP1 (AU), Average",[2]; [Isoproterenol] log(M) -11,0.00619 AU
same,"IP1 (AU), Average",[3]; [Isoproterenol] log(M) -5,0.44 AU
same,"IP1 (AU), Average",[3]; [Isoproterenol] log(M) -6,0.45 AU
same,"IP1 (AU), Average",[3]; [7],0.41 AU
same,"IP1 (AU), Average",[3]; [Isoproterenol] log(M) -7,0.38 AU
same,"IP1 (AU), Average",[3]; [8],0.22 AU
same,"IP1 (AU), Average",[3]; [Isoproterenol] log(M) -8,0.0235 AU
same,"IP1 (AU), Average",[3]; [5],0.04 AU
same,"IP1 (AU), Average",[3]; [Isoproterenol] log(M) -9,-0.0234 AU
same,"IP1 (AU), Average",[3]; [Isoproterenol] log(M) -10,-0.0216 AU
same,"IP1 (AU), Average",[3]; [Isoproterenol] log(M) -11,-0.00815 AU
same,"competition binding curve vs isoproterenol (Extended Data Figure 3M), Fit",[4]; [9],1.12
same,competition binding curve vs isoproterenol (Extended Data Figure 3M),[4]; [9],0.73 and -0.00169
same,"competition binding curve vs isoproterenol (Extended Data Figure 3M), Fit",[4]; [10],1.39
same,competition binding curve vs isoproterenol (Extended Data Figure 3M),[4]; [10],1.06 and 1.58 and 0.34 and 1.27
same,"competition binding curve vs isoproterenol (Extended Data Figure 3M), Fit",[4]; [11],3.99
same,competition binding curve vs isoproterenol (Extended Data Figure 3M),[4]; [11],5.22 and 6.17 and 4.29 and 5.19
same,"competition binding curve vs isoproterenol (Extended Data Figure 3M), Fit",[4]; [12],22.44
same,competition binding curve vs isoproterenol (Extended Data Figure 3M),[4]; [12],22.22 and 23.42 and 21.91 and 21.33
same,"competition binding curve vs isoproterenol (Extended Data Figure 3M), Fit",[4]; [13],61.20
same,competition binding curve vs isoproterenol (Extended Data Figure 3M),[4]; [13],61.19 and 63.45 and 61.62 and 58.48
same,"competition binding curve vs isoproterenol (Extended Data Figure 3M), Fit",[4]; [14],85.17
same,competition binding curve vs isoproterenol (Extended Data Figure 3M),[4]; [14],85.29 and 86.69 and 86.58 and 82.61
same,"competition binding curve vs isoproterenol (Extended Data Figure 3M), Fit",[4]; [15],97.00
same,competition binding curve vs isoproterenol (Extended Data Figure 3M),[4]; [15],96.71 and 101.87 and 95.55 and 92.70
same,"competition binding curve vs isoproterenol (Extended Data Figure 3M), Fit",[4]; [16],99.03
same,competition binding curve vs isoproterenol (Extended Data Figure 3M),[4]; [16],97.96 and 100.63 and 97.15 and 96.10
same,"competition binding curve vs isoproterenol (Extended Data Figure 3M), Fit",[4]; [17],0.48
same,competition binding curve vs isoproterenol (Extended Data Figure 3M),[4]; [17],0.69 and 0.84 and -0.72 and 0.27
same,competition binding curve vs isoproterenol (Extended Data Figure 3M),"[4]; Sensor, Isoproterenol 1.00E-04 M",1.32 and 1.71 and -0.50 and 0.84
same,"competition binding curve vs isoproterenol (Extended Data Figure 3M), Fit",[4]; [18],5.70
same,competition binding curve vs isoproterenol (Extended Data Figure 3M),[4]; [18],7.08 and 7.24 and 5.39 and 6.57
same,"competition binding curve vs isoproterenol (Extended Data Figure 3M), Fit",[4]; [19],30.01
same,competition binding curve vs isoproterenol (Extended Data Figure 3M),[4]; [19],30.57 and 29.08 and 29.48 and 29.71
